Counter-ions that a name gives are not always drawn.
Biological target: T1, IRAK4 (Homo sapiens, UniProt Q9NWZ3)
T1 sequence (Q9NWZ3 1-460): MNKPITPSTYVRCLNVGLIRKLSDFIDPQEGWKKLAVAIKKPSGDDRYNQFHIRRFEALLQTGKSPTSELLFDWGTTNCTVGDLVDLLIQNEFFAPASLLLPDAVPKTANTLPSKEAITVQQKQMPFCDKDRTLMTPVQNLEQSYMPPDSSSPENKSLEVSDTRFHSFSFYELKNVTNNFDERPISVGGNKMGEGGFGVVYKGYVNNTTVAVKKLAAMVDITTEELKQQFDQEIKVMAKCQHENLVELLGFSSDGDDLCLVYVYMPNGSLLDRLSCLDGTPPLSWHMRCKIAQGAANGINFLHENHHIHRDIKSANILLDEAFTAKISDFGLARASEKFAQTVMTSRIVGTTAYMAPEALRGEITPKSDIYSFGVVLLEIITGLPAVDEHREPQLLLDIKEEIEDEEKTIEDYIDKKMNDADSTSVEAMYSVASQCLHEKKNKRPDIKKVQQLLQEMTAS
Experiment: 2-hour 1 mM ATP IRAK4 Biochemical assay (as above, but with 100 pM IRAK4 and 1 mM ATP)
Conditions: IRAK4 MSD BIOCHEMICAL (1 mM ATP) IC50 (μM), 100 pM IRAK4, 2 hours
Procedure, shortened: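 Run with 100 pM IRAK4 and 1 mM ATP for 2 hours, quenched with EDTA pH 8. Phosphorylated biotinylated peptide captured on streptavidin MSD plates and detected with anti-phosphothreonine antibody plus Sulfo-Tag secondary by electrochemiluminescence.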

Compound | IC50
COc1nc(NC(=O)c2cccc(C(F)F)n2)cn2cc(C3CCCOC3)nc12 (stereo not drawn) [Example 549, 6-(difluoromethyl)-N-(8-methoxy-2-(tetrahydro-2H-pyran-3-yl)imidazo[1,2-a]pyrazin-6-yl)picolinamide] | 0.005 µM
CC(C)Oc1nc(NC(=O)c2cccc3ncnn23)cn2cc(C34COC(C)(C3)C4)nc12 [Example 480, N-(8-isopropoxy-2-(1-methyl-2-oxabicyclo[2.1.1]hexan-4-yl)imidazo[1,2-a]pyrazin-6-yl)-[1,2,4]triazolo[1,5-a]pyridine-5-carboxamide] | 0.005 µM
CC(C)Oc1nc2nc(C3CCOCC3)cn2cc1NC(=O)c1cccc2c1OCC2(F)F [Example 487, 3,3-difluoro-N-(7-isopropoxy-2-(tetrahydro-2H-pyran-4-yl)imidazo[1,2-a]pyrimidin-6-yl)-2,3-dihydrobenzofuran-7-carboxamide] | 0.001 µM
COc1nc(NC(=O)c2cccc3ccnn23)cn2cc(C34COC(C)(C3)C4)nc12 [Example 442, N-(8-methoxy-2-(1-methyl-2-oxabicyclo[2.1.1]hexan-4-yl)imidazo[1,2-a]pyrazin-6-yl)pyrazolo[1,5-a]pyridine-7-carboxamide] | 0.024 µM
O=C(Nc1cn2cc(C3CCOCC3)nc2cc1OCC1CC1(F)F)c1cccc(C(F)F)n1 (stereo not drawn) [Example 196, N-(7-((2,2-difluorocyclopropyl)methoxy)-2-(tetrahydro-2H-pyran-4-yl)imidazo[1,2-a]pyridin-6-yl)-6-(difluoromethyl)picolinamide] | 0.001 µM
CCOc1cc2nc(C3C4COCC43)cn2cc1NC(=O)c1ccn(CC(F)(F)F)n1 (stereo not drawn) [Example 235, N-(2-(3-oxabicyclo[3.1.0]hexan-6-yl)-7-ethoxyimidazo[1,2-a]pyridin-6-yl)-1-(2,2,2-trifluoroethyl)-1H-pyrazole-3-carboxamide] | 0.023 µM
O=C(Nc1cn2cc(C3CCOCC3)nc2cc1C(F)(F)F)c1cccc(C(F)F)n1 [Example 312, 6-(difluoromethyl)-N-(2-(tetrahydro-2H-pyran-4-yl)-7-(trifluoromethyl)imidazo[1,2-a]pyridin-6-yl)picolinamide] | 0.052 µM
COc1ncccc1C(=O)Nc1cn2cc(C34CCC(C)(C3)OC4)nc2c(OC)n1 (stereo not drawn) [Example 468, 2-methoxy-N-(8-methoxy-2-(1-methyl-2-oxabicyclo[2.2.1]heptan-4-yl)imidazo[1,2-a]pyrazin-6-yl)nicotinamide 2,2,2-trifluoroacetate] | 0.022 µM
CC(C)Oc1c(NC(=O)c2cccn(C(F)F)c2=O)cn2cc(C34COC(C)(C3)C4)nc2c1F [Example 324, 1-(difluoromethyl)-N-(8-fluoro-7-isopropoxy-2-(1-methyl-2-oxabicyclo[2.1.1]hexan-4-yl)imidazo[1,2-a]pyridin-6-yl)-2-oxo-1,2-dihydropyridine-3-carboxamide] | 0.002 µM
CC(C)Oc1c(NC(=O)c2ccn(C)n2)cn2cc(C34CCC(C)(C3)OC4)nc2c1F (stereo not drawn) [Example 325, N-(8-fluoro-7-isopropoxy-2-(1-methyl-2-oxabicyclo[2.2.1]heptan-4-yl)imidazo[1,2-a]pyridin-6-yl)-1-methyl-1H-pyrazole-3-carboxamide] | 0.002 µM
COCC(C)(C)c1cn2cc(NC(=O)c3cccc(C(F)F)n3)c(OC(C)C)cc2n1 [Example 527, 6-(difluoromethyl)-N-(7-isopropoxy-2-(1-methoxy-2-methylpropan-2-yl)imidazo[1,2-a]pyridin-6-yl)picolinamide] | 0.003 µM
COc1ncccc1C(=O)Nc1cn2cc(Cl)nc2cc1OC(C)C [Example 401, N-(2-chloro-7-isopropoxyimidazo[1,2-a]pyridin-6-yl)-2-methoxynicotinamide] | 0.027 µM
CCOc1nc2nc(C3CCOCC3)cn2cc1NC(=O)c1cccc2c1OCC2 [Example 343, N-(7-ethoxy-2-(tetrahydro-2H-pyran-4-yl)imidazo[1,2-a]pyrimidin-6-yl)-2,3-dihydrobenzofuran-7-carboxamide] | 0.004 µM
CCOc1cc2nc([C@@H]3C[C@@H]3F)cn2cc1NC(=O)c1cccc(C(F)F)n1 (relative stereo) [Example 519, Cis 6-(difluoromethyl)-N-(7-ethoxy-2-(2-fluorocyclopropyl)imidazo[1,2-a]pyridin-6-yl)picolinamide hydrochloride] | 0.008 µM
CC(C)Oc1c(NC(=O)c2ccn(C(F)F)n2)cn2cc(C34COC(C)(C3)C4)nc2c1F [Example 547, 1-(difluoromethyl)-N-(8-fluoro-7-isopropoxy-2-(1-methyl-2-oxabicyclo[2.1.1]hexan-4-yl)imidazo[1,2-a]pyridin-6-yl)-1H-pyrazole-3-carboxamide] | 0.001 µM
O=C(Nc1cn2cc(C3CCCOC3)nc2c(OC(F)F)n1)c1cccc(C(F)F)n1 (single isomer, unassigned) [Example 302, N-(8-(difluoromethoxy)-2-(tetrahydro-2H-pyran-3-yl)imidazo[1,2-a]pyrazin-6-yl)-6-(difluoromethyl)picolinamide] | 0.008 µM
Cc1nc(NC(=O)c2cccc(C(F)F)n2)cn2cc(C3CCOCC3)nc12 [Example 296, 6-(difluoromethyl)-N-(8-methyl-2-(tetrahydro-2H-pyran-4-yl)imidazo[1,2-a]pyrazin-6-yl)picolinamide] | 0.089 µM
COc1nc(NC(=O)c2cccc(C(F)F)n2)cn2cc(C3CC4(CCOC4)C3)nc12 (stereo not drawn) [Example 557, 6-(difluoromethyl)-N-(8-methoxy-2-(6-oxaspiro[3.4]octan-2-yl)imidazo[1,2-a]pyrazin-6-yl)picolinamide 2,2,2-trifluoroacetate] | 0.006 µM
COc1nc(NC(=O)c2cccc(C3CC3)n2)cn2cc(C3CCOCC3)nc12 [Example 334, 6-cyclopropyl-N-(8-methoxy-2-(tetrahydro-2H-pyran-4-yl)imidazo[1,2-a]pyrazin-6-yl)picolinamide] | 0.008 µM
CCOc1cc2nc(C3C4COCC43)cn2cc1NC(=O)c1coc(C(F)F)n1 (stereo not drawn) [Example 376, N-(2-(3-oxabicyclo[3.1.0]hexan-6-yl)-7-ethoxyimidazo[1,2-a]pyridin-6-yl)-2-(difluoromethyl)oxazole-4-carboxamide 2,2,2-trifluoroacetate] | 0.009 µM
CC12CC(c3cn4cc(NC(=O)c5cccc(C(F)F)n5)nc(O)c4n3)(CO1)C2 [Example 200, 6-(difluoromethyl)-N-(8-hydroxy-2-(1-methyl-2-oxabicyclo[2.1.1]hexan-4-yl)imidazo[1,2-a]pyrazin-6-yl)picolinamide] | 0.06 µM
O=C(Nc1cn2cc(C3CCOCC3)nc2c(N2CCCC2)n1)c1cccc(C(F)F)n1 [Example 342, 6-(difluoromethyl)-N-(8-(pyrrolidin-1-yl)-2-(tetrahydro-2H-pyran-4-yl)imidazo[1,2-a]pyrazin-6-yl)picolinamide] | 0.055 µM
CCCOc1nc(NC(=O)c2cccc(C(F)F)n2)cn2cc(C3CCOCC3)nc12 [Example 476, 6-(difluoromethyl)-N-(8-propoxy-2-(tetrahydro-2H-pyran-4-yl)imidazo[1,2-a]pyrazin-6-yl)picolinamide 2,2,2-trifluoroacetate] | 0.006 µM
COCc1cc2nc(C3CCOCC3)cn2cc1NC(=O)c1cccc(C(F)F)n1 [Example 314, 6-(difluoromethyl)-N-(7-(methoxymethyl)-2-(tetrahydro-2H-pyran-4-yl)imidazo[1,2-a]pyridin-6-yl)picolinamide] | 0.013 µM

Source: US20220089592A1, “IMIDAZO[1,2-A]PYRIDINYL DERIVATIVES AS IRAK4 INHIBITORS” (priority 2019, published 2022)
